Test results published in the supplement of paper PMC10307832.

Columns and labels:
Assay in all cases: relative viability (nuclei count vs DMSO), 5 days (fraction); higher = more cells survive
IMD-0354 + Lapatinib = compound: O=C(Nc1cc(C(F)(F)F)cc(C(F)(F)F)c1)c1cc(Cl)ccc1O [IMD-0354] + CS(=O)(=O)CCNCc1ccc(-c2ccc3ncnc(Nc4ccc(OCc5cccc(F)c5)c(Cl)c4)c3c2)o1 [Lapatinib] (partner 2 µM)
In short: (§1)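 The day after seeding in 1536-well plates, lung cancer cell lines were treated by pin tool with a single drug, or with a fixed anchor-drug dose together with five library-drug doses (not always all listed) in √10 steps. After 5 days, a combined fix-and-stain solution (final 0.05% Triton X-100, 1% formaldehyde, 1 ug/ml Hoechst) was added. Nuclei counted on 4× images gave relative viability as treated counts over vehicle counts, reported as the median of duplicate plates.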

IMD-0354 + Bortezomib = compound: O=C(Nc1cc(C(F)(F)F)cc(C(F)(F)F)c1)c1cc(Cl)ccc1O [IMD-0354] + CC(C)C[C@H](NC(=O)[C@H](Cc1ccccc1)NC(=O)c1cnccn1)B(O)O [Bortezomib] (partner 0.002 µM)
In short: as §1

CX-5461 + Tozasertib = compound: Cc1cnc(CNC(=O)c2c(=O)c3ccc(N4CCCN(C)CC4)nc3n3c2sc2ccccc23)cn1 [CX-5461] + Cc1cc(Nc2cc(N3CCN(C)CC3)nc(Sc3ccc(NC(=O)C4CC4)cc3)n2)n[nH]1 [Tozasertib] (partner 0.1 µM)
In short: as §1

CX-5461 + Phenformin = compound: Cc1cnc(CNC(=O)c2c(=O)c3ccc(N4CCCN(C)CC4)nc3n3c2sc2ccccc23)cn1 [CX-5461] + N=C(N)NC(=N)NCCc1ccccc1 [Phenformin] (partner 250 µM)
In short: as §1

| Cell Line | relative viability (IMD-0354 + Lapatinib; first compound 0.04 µM) | relative viability (IMD-0354 + Lapatinib; first compound 0.1265 µM) | relative viability (IMD-0354 + Lapatinib; first compound 0.4 µM) | relative viability (IMD-0354 + Lapatinib; first compound 1.265 µM) | relative viability (IMD-0354 + Lapatinib; first compound 4 µM) | relative viability (IMD-0354 + Bortezomib; first compound 0.04 µM) | relative viability (IMD-0354 + Bortezomib; first compound 0.1265 µM) | relative viability (IMD-0354 + Bortezomib; first compound 0.4 µM) | relative viability (IMD-0354 + Bortezomib; first compound 1.265 µM) | relative viability (IMD-0354 + Bortezomib; first compound 4 µM) | relative viability (CX-5461 + Tozasertib; first compound 0.01 µM) | relative viability (CX-5461 + Tozasertib; first compound 0.03162 µM) | relative viability (CX-5461 + Tozasertib; first compound 0.1 µM) | relative viability (CX-5461 + Tozasertib; first compound 1 µM) | relative viability (CX-5461 + Phenformin; first compound 0.01 µM) | relative viability (CX-5461 + Phenformin; first compound 0.03162 µM) | relative viability (CX-5461 + Phenformin; first compound 0.1 µM) | relative viability (CX-5461 + Phenformin; first compound 1 µM) | relative viability (CX-5461 + Tozasertib; first compound 0.3162 µM) | relative viability (CX-5461 + Phenformin; first compound 0.3162 µM) |
| --- | --- | --- | --- | --- | --- | --- | --- | --- | --- | --- | --- | --- | --- | --- | --- | --- | --- | --- | --- | --- |
| HARA | 0.792 | 0.752 | 0.432 | 0.11 | 0.198 | 0.948 | 1.13 | 0.543 | 0.122 | 0.213 | 0.137 | 0.115 | 0.138 | 0.189 | 0.416 | 0.414 | 0.48 | 0.353 | – | – |
| HCC-15 | 0.837 | 0.824 | 0.383 | 0.241 | 0.127 | 1 | 0.962 | 0.549 | 0.346 | 0.119 | 0.434 | 0.586 | 0.333 | 0.176 | 0.514 | 0.53 | 0.372 | 0.163 | 0.321 | 0.467 |
| IA-LM | 0.628 | 0.743 | 0.412 | 0.285 | 0.235 | 0.866 | 0.977 | 0.76 | 0.102 | 0.121 | – | – | – | – | – | – | – | – | – | – |
| LCLC-103H | – | – | – | – | – | 1.14 | 1.02 | 0.939 | 0.847 | 0.252 | 0.457 | 0.527 | 0.473 | 0.477 | 0.377 | 0.349 | 0.326 | 0.297 | 0.391 | 0.364 |
| LK-2 | 1.14 | 0.9 | 0.545 | 0.844 | 0.288 | – | – | – | – | – | 0.18 | 0.182 | 0.162 | 0.183 | 0.611 | 0.443 | 0.386 | 0.111 | – | – |
| NCI-H358 | 0.541 | 0.441 | 0.413 | 0.273 | 0.192 | – | – | – | – | – | 0.108 | 0.0952 | 0.117 | 0.0892 | 0.349 | 0.347 | 0.316 | 0.148 | 0.103 | 0.236 |
| NCI-H441 | – | – | – | – | – | – | 0.848 | 0.218 | 0.15 | 0.0844 | 0.515 | 0.742 | 0.643 | 0.362 | 0.758 | 1.05 | 0.779 | 0.305 | 0.678 | 0.86 |
| NCI-H522 | – | – | – | – | – | – | – | – | – | – | 0.521 | 0.44 | 0.597 | 0.646 | 0.653 | 0.614 | 0.654 | 0.593 | – | – |
| NCI-H1299 | 0.844 | 0.964 | 0.462 | 0.221 | 0.185 | 0.938 | 0.965 | 0.841 | 0.438 | 0.193 | – | – | – | – | – | – | – | – | – | – |
| NCI-H1395 | 1.11 | 1.28 | 0.821 | 0.292 | 0.364 | – | – | – | – | – | 0.811 | 0.796 | 0.757 | 0.588 | 0.473 | 0.426 | 0.437 | 0.396 | 0.574 | 0.341 |
| NCI-H1563 | 1.18 | 1.01 | 0.903 | 0.44 | 0.415 | 1.01 | 0.927 | 0.768 | 0.403 | 0.38 | – | – | – | – | 0.663 | 0.677 | 0.531 | 0.457 | – | 0.627 |
| NCI-H1623 | – | – | – | – | – | – | – | – | – | – | 0.465 | 0.406 | 0.44 | 0.372 | 0.556 | 0.588 | 0.556 | 0.593 | 0.463 | 0.616 |
| NCI-H1648 | – | – | – | – | – | – | – | – | – | – | – | 0.654 | 0.607 | 0.514 | – | – | – | – | 0.397 | – |
| NCI-H1703 | 0.936 | 1.03 | 0.475 | 0.202 | 0.21 | 0.234 | 0.3 | 0.352 | 0.168 | 0.102 | – | – | – | – | – | – | – | – | – | – |
| NCI-H1792 | 0.827 | 0.967 | 0.833 | 0.479 | 0.299 | 1.11 | 0.815 | 0.688 | 0.635 | 0.321 | – | – | – | – | 0.387 | 0.198 | 0.114 | 0.111 | – | 0.401 |
| NCI-H1793 | 0.651 | 0.613 | 0.347 | 0.238 | 0.323 | – | – | – | – | – | 0.281 | 0.332 | 0.426 | 0.315 | 0.388 | 0.392 | 0.433 | 0.289 | – | – |
| NCI-H1944 | 0.699 | 0.862 | – | 0.922 | 0.171 | – | – | – | – | – | 0.259 | 0.271 | 0.244 | 0.248 | 0.228 | 0.193 | 0.181 | 0.122 | 0.228 | 0.159 |
| NCI-H2170 | 0.275 | 0.288 | 0.255 | 0.252 | 0.223 | – | – | – | – | – | 0.781 | 0.768 | 0.727 | 0.637 | 0.44 | 0.418 | 0.407 | 0.322 | 0.581 | 0.363 |
| NCI-H2342 | – | – | – | – | – | – | – | – | – | – | 0.521 | 0.524 | 0.462 | 0.566 | 0.645 | 0.53 | 0.535 | 0.586 | 0.497 | 0.675 |
| SK-MES-1 | 0.434 | 0.528 | 0.377 | 0.369 | 0.236 | – | – | – | – | – | 1 | 0.977 | 0.728 | 0.294 | 0.662 | 0.645 | 0.452 | 0.313 | 0.815 | 0.625 |
| SW 900 | – | – | – | – | – | – | – | – | – | – | 0.555 | 0.525 | 0.544 | 0.537 | 0.656 | 0.641 | 0.743 | 0.209 | 0.609 | 0.532 |
